Assay results: ChEMBL document CHEMBL1129417, “Glucose transport-enhancing and hypoglycemic activity of 2-methyl-2-phenoxy-3-phenylpropanoic acids” (1996)
Values joined by “and” are separate entries in the source; they are usually repeats but may differ in a detail not shown here. Equal entries are not always repeated.

Key:
Type in all cases: functional
Mus musculus [1] = assay: In vivo hypoglycemic activity expressed as glucose lowering relative to positive control in 6-8 week old C57BL/6J ob/ob mouse at 10 mg/kg
Mus musculus [2] = assay: In vivo hypoglycemic activity expressed as glucose lowering relative to positive control in 6-8 week old C57BL/6J ob/ob mouse at 1 mg/kg.
Mus musculus [3] = assay: In vivo hypoglycemic activity expressed as glucose lowering relative to positive control in 6-8 week old C57BL/6J ob/ob mouse at 5 mg/kg.
Rattus norvegicus = species: Rattus norvegicus; assay: Inhibition of gluconeogenesis in rat
3T3-L1 [4] = assay: Acute effects in vitro by measuring 2-deoxyglucose (2DG) uptake in vehicle treated 3T3-L1 adipocytes at 30 uM dose.
3T3-L1 [5] = assay: In vitro measurements of 2-Deoxyglucose (2DG) uptake in vehicle treated 3T3-L1 adipocytes at 60 uM dose.
3T3-L1 [6] = assay: Acute effects in vitro by measuring 2-deoxyglucose (2DG) uptake in vehicle treated 3T3-L1 adipocytes at 10 uM dose.
3T3-L1 [7] = assay: In vitro by measurements of 2-Deoxyglucose (2DG) uptake in vehicle treated 3T3-L1 adipocytes at 3 uM dose.
[8] = Rattus norvegicus, read-out: ED50

## CCc1ccc(CC(C)(Oc2ccc(Cc3ccccc3)cc2)C(=O)[O-])cc1.[Na+] (configuration not stated)
Mus musculus [1]
  Hypoglycemic activity: 107%
Mus musculus [2]
  Hypoglycemic activity: 44%
Mus musculus [3]
  Hypoglycemic activity: 104%
Rattus norvegicus; [8]
  ED50: 1 mg/kg

## CC(Cc1ccc(Cl)cc1)(Oc1ccc(Cc2ccccc2)cc1)C(=O)[O-].[Na+] (configuration not stated)
3T3-L1 [4]
  Basal uptake: 109%
3T3-L1 [5]
  Basal uptake: 214%
Mus musculus [1]
  Hypoglycemic activity: 96%
Mus musculus [2]
  Hypoglycemic activity: 44%
Mus musculus [3]
  Hypoglycemic activity: 100%
Rattus norvegicus; [8]
  ED50: 1 mg/kg

## Cc1cc(C)c(CC(C)(Oc2ccc(C(C)C)cc2)C(=O)[O-])c(C)c1.[Na+] (configuration not stated)
3T3-L1 [6]
  Basal uptake: 148%
3T3-L1 [4]
  Basal uptake: 106%
3T3-L1 [5]
  Basal uptake: 173%
Mus musculus [1]
  Hypoglycemic activity: 77%
Rattus norvegicus; [8]
  ED50: < 10 mg/kg

## CC(C)c1ccc(OC(C)(COP(=O)([O-])[O-])Cc2ccc(Cl)cc2)cc1.[Ca+2] (configuration not stated)
Mus musculus [1]
  Hypoglycemic activity: 50%
Rattus norvegicus; [8]
  ED50: > 10 mg/kg

## CC(C)c1ccc(OC(C)(Cc2ccc3ccccc3c2)C(=O)O)cc1 (configuration not stated)
Mus musculus [1]
  Hypoglycemic activity: 46%
Rattus norvegicus; [8]
  ED50: > 10 mg/kg

## COc1ccc(S(=O)(=O)NC(=O)C(C)(Oc2ccc(C(C)C)cc2)C(C)c2ccc(Cl)cc2)cc1 (configuration not stated)
3T3-L1 [6]
  Basal uptake: 113%
3T3-L1 [4]
  Basal uptake: 162%
3T3-L1 [7]
  Basal uptake: 130%
Mus musculus [1]
  Hypoglycemic activity: 16%
Rattus norvegicus; [8]
  ED50: > 10 mg/kg

## CCc1ccc(CC(C)(Oc2ccc(C(C)C)cc2)C(=O)NS(=O)(=O)C(F)(F)F)cc1 (configuration not stated)
Mus musculus [1]
  Hypoglycemic activity: 27%
Rattus norvegicus; [8]
  ED50: > 10 mg/kg

## CC(C)c1ccc(OC(C)(Cc2ccc3c(c2)CCCC3)C(=O)[O-])cc1.[Na+] (configuration not stated)
Mus musculus [1]
  Hypoglycemic activity: 99%
Mus musculus [3]
  Hypoglycemic activity: 75%
Rattus norvegicus; [8]
  ED50: < 5 mg/kg

## CC(C)c1ccc(OC(C)(Cc2ccc(C(C)(C)C)cc2)C(=O)O)cc1 (configuration not stated)
3T3-L1 [6]
  Basal uptake: 104%
3T3-L1 [4]
  Basal uptake: 213% and 103%
Mus musculus [1]
  Hypoglycemic activity: 102%
Mus musculus [2]
  Hypoglycemic activity: 41%
Mus musculus [3]
  Hypoglycemic activity: 47%
Rattus norvegicus; [8]
  ED50: 5 mg/kg

## CC(C)C1CCC(OC(C)(Cc2ccc(Cl)cc2)C(=O)[O-])CC1.[Na+] (configuration not stated)
Mus musculus [1]
  Hypoglycemic activity: <0%
Rattus norvegicus; [8]
  ED50: > 10 mg/kg

## CC(C)c1ccc(OC(C)(Cc2ccc(Cl)cc2)c2nnn[nH]2)cc1 (configuration not stated)
3T3-L1 [6]
  Basal uptake: 105%
3T3-L1 [4]
  Basal uptake: 159% and 105%
Mus musculus [1]
  Hypoglycemic activity: <0%
Rattus norvegicus; [8]
  ED50: 10 mg/kg

## CC(Cc1ccc(Cl)cc1)(Oc1ccc(Oc2ccccc2)cc1)C(=O)O (configuration not stated)
Mus musculus [1]
  Hypoglycemic activity: 108%
Mus musculus [2]
  Hypoglycemic activity: 60%
Mus musculus [3]
  Hypoglycemic activity: 100%
Rattus norvegicus; [8]
  ED50: < 1 mg/kg

## CCc1cccc(CC(C)(Oc2ccc(C3CCSc4ccccc43)cc2)C(=O)[O-])c1.[Na+] (configuration not stated)
3T3-L1 [6]
  Basal uptake: 113%
3T3-L1 [7]
  Basal uptake: 116% and 104%
Mus musculus [1]
  Hypoglycemic activity: 35%
Rattus norvegicus; [8]
  ED50: > 10 mg/kg

## CC(C)c1ccc(OC(C)(Cc2ccc(Cl)c(Cl)c2)C(=O)O)cc1 (configuration not stated)
Mus musculus [1]
  Hypoglycemic activity: 111%
Mus musculus [2]
  Hypoglycemic activity: 0%
Mus musculus [3]
  Hypoglycemic activity: 24%
Rattus norvegicus; [8]
  ED50: 5 mg/kg

## COc1ccc(CC(C)(Oc2ccc(C(C)C)cc2)C(=O)O)cc1 (configuration not stated)
Mus musculus [1]
  Hypoglycemic activity: 41%
Rattus norvegicus; [8]
  ED50: > 10 mg/kg

## CCCc1ccc(CC(C)(Oc2ccc(C(C)C)cc2)C(=O)NS(=O)(=O)C(F)(F)F)cc1 (configuration not stated)
Mus musculus [1]
  Hypoglycemic activity: 35%
Rattus norvegicus; [8]
  ED50: > 10 mg/kg

## CC(C)c1ccc(OC(C)(Cc2ccc(Cl)cc2)C(=O)/N=C(\N)NO)cc1 (configuration not stated)
Mus musculus [1]
  Hypoglycemic activity: 49%
Mus musculus [2]
  Hypoglycemic activity: <0%
Mus musculus [3]
  Hypoglycemic activity: 44%
Rattus norvegicus; [8]
  ED50: 10 mg/kg

## CC(C)c1ccc(OC(C)(CO)Cc2ccc(Cl)cc2)cc1 (configuration not stated)
3T3-L1 [6]
  Basal uptake: 121%
3T3-L1 [4]
  Basal uptake: 118%
3T3-L1 [7]
  Basal uptake: 118%
Mus musculus [1]
  Hypoglycemic activity: <0%
Rattus norvegicus; [8]
  ED50: 10 mg/kg

## COc1ccc(Cc2ccc(OC(C)(Cc3ccc(Cl)cc3)C(=O)[O-])cc2)cc1.[Na+] (configuration not stated)
Mus musculus [1]
  Hypoglycemic activity: 74%
Rattus norvegicus; [8]
  ED50: < 10 mg/kg

## CC(Cc1ccc(Cl)cc1)(Oc1ccc(C2CCSCC2)cc1)C(=O)[O-].[Na+] (configuration not stated)
3T3-L1 [5]
  Basal uptake: 108%
Mus musculus [1]
  Hypoglycemic activity: 64%
Rattus norvegicus; [8]
  ED50: < 10 mg/kg

## COc1ccccc1CC(Oc1ccc(C(C)C)cc1)C(=O)O (configuration not stated)
3T3-L1 [5]
  Basal uptake: 78%
Mus musculus [1]
  Hypoglycemic activity: <0%
Rattus norvegicus; [8]
  ED50: > 10 mg/kg

## CC(Cc1ccc(Cl)cc1)(Oc1ccc(Br)cc1)C(=O)O (configuration not stated)
3T3-L1 [6]
  Basal uptake: 109%
3T3-L1 [4]
  Basal uptake: 134%
3T3-L1 [7]
  Basal uptake: 120%
Mus musculus [1]
  Hypoglycemic activity: 22%
Rattus norvegicus; [8]
  ED50: < 1 mg/kg

## CC(C)c1ccc(OC(C)(Cc2ccc(Cl)cc2)C(=O)NS(C)(=O)=O)cc1 (configuration not stated)
3T3-L1 [6]
  Basal uptake: 100%
3T3-L1 [4]
  Basal uptake: 255%
3T3-L1 [5]
  Basal uptake: 200%
Mus musculus [1]; 10 mg/kg
  Hypoglycemic activity: 96% and 100%
Mus musculus [3]
  Hypoglycemic activity: 0%
Rattus norvegicus; [8]
  ED50: 5 mg/kg

## COc1ccc(Cl)cc1C(=O)NCCc1ccc(CC(C)(Oc2ccc(C(C)C)cc2)C(=O)O)cc1 (configuration not stated)
Mus musculus [1]
  Hypoglycemic activity: 24%
Rattus norvegicus; [8]
  ED50: > 10 mg/kg

## CC(C)c1ccc(OC(C(=O)O)C(C)c2ccc(Cl)cc2)cc1 (configuration not stated)
3T3-L1 [5]
  Basal uptake: 111%
Mus musculus [1]
  Hypoglycemic activity: 17%
Rattus norvegicus; [8]
  ED50: > 10 mg/kg

## Cc1ccccc1S(=O)(=O)NC(=O)C(C)(Cc1ccc(Cl)cc1)Oc1ccc(C(C)C)cc1 (configuration not stated)
3T3-L1 [6]
  Basal uptake: 251%
3T3-L1 [4]
  Basal uptake: 232% and 126%
Mus musculus [1]
  Hypoglycemic activity: <0%
Rattus norvegicus; [8]
  ED50: > 10 mg/kg

## CC(C)c1ccc(OC(C)(Cc2ccc(Cl)cc2)C(=N)NO)cc1 (configuration not stated)
Mus musculus [1]
  Hypoglycemic activity: 27%
Rattus norvegicus; [8]
  ED50: > 10 mg/kg

## CCc1ccc(CC(C)(Oc2ccc(Oc3ccccc3)cc2)C(=O)O)cc1 (configuration not stated)
Mus musculus [1]
  Hypoglycemic activity: 130%
Mus musculus [2]
  Hypoglycemic activity: 48%
Mus musculus [3]
  Hypoglycemic activity: 113%
Rattus norvegicus; [8]
  ED50: 1 mg/kg

## CC(C)c1ccc(OC(C)(Cc2ccc(Cl)cc2)C(=O)CO)cc1 (configuration not stated)
Mus musculus [1]
  Hypoglycemic activity: 32%
Rattus norvegicus; [8]
  ED50: > 10 mg/kg

## CC(Cc1ccc(Cl)cc1)(Oc1ccc(Cc2ccc(Cl)cc2)cc1)C(=O)[O-].[Na+] (configuration not stated)
3T3-L1 [6]
  Basal uptake: 94%
3T3-L1 [4]
  Basal uptake: 112% and 90%
Mus musculus [1]
  Hypoglycemic activity: <0%
Rattus norvegicus; [8]
  ED50: > 10 mg/kg

## COc1ccc(S(=O)(=O)NC(=O)C(C)(Cc2ccc(Cl)cc2)Oc2ccc(C(C)C)cc2)cc1 (configuration not stated)
3T3-L1 [6]
  Basal uptake: 101%
3T3-L1 [4]
  Basal uptake: 154%
3T3-L1 [5]
  Basal uptake: 67%
Mus musculus [1]
  Hypoglycemic activity: 22%
Rattus norvegicus; [8]
  ED50: > 10 mg/kg

## CCCCc1cccc(CC(C)(Oc2ccc(C(C)C)cc2)C(=O)[O-])c1.[Na+] (configuration not stated)
3T3-L1 [6]
  Basal uptake: 129%
3T3-L1 [4]
  Basal uptake: 113%
Mus musculus [1]
  Hypoglycemic activity: 91%
Mus musculus [2]
  Hypoglycemic activity: <0%
Mus musculus [3]
  Hypoglycemic activity: 85%
Rattus norvegicus; [8]
  ED50: 1 mg/kg

## CC(Cc1ccc(Cl)cc1)(Oc1ccccc1Cc1ccc(Cl)cc1)C(=O)[O-].[Na+] (configuration not stated)
3T3-L1 [6]
  Basal uptake: 88%
3T3-L1 [4]
  Basal uptake: 97% and 100%
Mus musculus [1]
  Hypoglycemic activity: 52%
Rattus norvegicus; [8]
  ED50: 10 mg/kg

## CCCc1ccc(CC(C)(Oc2ccc(Cc3ccccc3)cc2)C(=O)[O-])cc1.[Na+] (configuration not stated)
Mus musculus [1]
  Hypoglycemic activity: 96%
Mus musculus [2]
  Hypoglycemic activity: 24%
Mus musculus [3]
  Hypoglycemic activity: 91%
Rattus norvegicus; [8]
  ED50: 1 mg/kg

## COc1ccccc1CC(C)(Oc1ccc(C(C)C)cc1)C(=O)O (configuration not stated)
3T3-L1 [6]
  Basal uptake: 100%
3T3-L1 [4]
  Basal uptake: 122%
3T3-L1 [5]
  Basal uptake: 120%
Mus musculus [1]
  Hypoglycemic activity: <0%
Rattus norvegicus; [8]
  ED50: > 10 mg/kg

## CCc1ccccc1CC(C)(Oc1ccc(C(C)C)cc1)C(=O)[O-].[Na+] (configuration not stated)
Mus musculus [1]
  Hypoglycemic activity: 95%
Mus musculus [2]
  Hypoglycemic activity: 32%
Mus musculus [3]
  Hypoglycemic activity: 53%
Rattus norvegicus; [8]
  ED50: 5 mg/kg

## CC(C)c1ccc(OC(C(=O)[O-])C(C)c2ccc(Cl)cc2)cc1.[Na+] (configuration not stated)
3T3-L1 [5]
  Basal uptake: 98%
Mus musculus [1]
  Hypoglycemic activity: 41%
Rattus norvegicus; [8]
  ED50: > 10 mg/kg

## CC(C)c1ccc(OC(C)(C(=O)O)C(C)c2ccc(Cl)cc2)cc1 (stereo in doubt; 85)
3T3-L1 [6]
  Basal uptake: 128%
3T3-L1 [4]
  Basal uptake: 131%
3T3-L1 [5]
  Basal uptake: 209%
Mus musculus [1]; 10 mg/kg
  Hypoglycemic activity: 46%
Rattus norvegicus
  ED50: >10 mg/kg

## CC(C)c1ccc(OC(C)(C(=O)O)C2CCc3cc(Cl)ccc32)cc1 (stereo in doubt; 101)
3T3-L1 [6]
  Basal uptake: 86%
3T3-L1 [4]
  Basal uptake: 85%
3T3-L1 [7]
  Basal uptake: 71%
Mus musculus [1]; 10 mg/kg
  Hypoglycemic activity: 35%
Rattus norvegicus
  ED50: >10 mg/kg
